Assay results reported in patent US9878007B2, “Syndecan peptides and polypeptides as inhibitors of vascular endothelial growth factor receptor-2 (VEGFR2) and very late antigen-4 (VLA-4)” (Wisconsin Alumni Research Foundation, priority 2015, dated 2018).
No end group written: not given here.

How the values were obtained:
[1] = test system: CAG myeloma cells; test: Cell spreading / attachment assay of CAG myeloma cells on FN or VCAM-1; format: cell-based, human; conditions: 0.3 μM peptide; for induction of HPSE^low cell spreading by S1ED peptides: on VCAM-1
Experimental: Nitrocellulose-coated slides were coated for 2 hr at 37° C. with 40 μg/ml FN (kindly provided by Dr. Donna Peters, University of Wisconsin-Madison) or 5 μg/ml recombinant VCAM-1/Fc chimera (R&D Systems) in calcium and magnesium-free PBS (CMF-PBS; 135 mM NaCl, 2.7 mM KCl, 10.2 mM Na2HPO4-7H20 and 1.75 mM KH2PO4, pH7.4). Slides were blocked for 1 hr at 37° C. with RPMI 1640 containing 1% heat-denatured BSA (plating medium). Cells in plating medium were allowed to attach and spread for 2.5 hr at 37° C. Slides were fixed in 4% EM grade paraformaldehyde (Electron Microscopy Sciences) in CMF-PBS and labeled for 30 min in 0.13 μM rhodamine phalloidin (Invitrogen) in CMF-PBS. Coverslips were mounted in non-fluorescing mounting medium (Immumount; Thermo Shandon) and allowed to dry. All images were acquired with a Nikon Microphot FX microscope using a 20× objective (Nikon; Ex 541-551, DM 580, Barrier 590), Photometric CoolSnap ES camera, and version 7.7.3.0 Metamorph© Imaging software (Molecular Devices). All images represent results from triplicate wells and at least three independent experiments.

[2] = target: T1, VEGFR2 (Homo sapiens, UniProt P35968); test: GST pull down assay: capture of VEGFR2 by GST-S1ED; format: binding; conditions: HPSE^low cell lysates; peptide 30 M [sic]
T1 construct: endogenous in cells; host or cells: CAG human myeloma cells (HPSE^low = empty vector; HPSE^high = human HPSE cDNA)
Experimental: FIGS. 6A-G. Peptides derived from the active site in Sdc1 activate or inhibit adhesion and invasion. (FIG. 6A) Transwell migration assays towards FN (for 16 hrs) were performed for HPSE low or high cells in the presence of 0, 0.3, 3, and 30 μM of S1ED^210-240. Cells migrating to the bottom side of the filter were counted from five random images for each treatment. (FIG. 6B) The sequence of S1ED210-240 is shown (SEQ ID NO: 3), as well as […] truncation mutants of the peptide (SEQ ID NOs: 5, 2, 4 and 7). Amino acids shown in red appear necessary for the spreading and invasive activity. (FIG. 6C) Images of HPSE^low and HPSE^high cells plated on FN for 2 hr. (FIG. 6D) HPSE^low cells were treated with 0, 0.3, 3, 10 and 30 μM of S1ED^210-236, S1ED^210-233, or S1ED^214-240, plated on FN for 2 hr, fixed and stained with fluorescent phalloidin. Cells from five random images were quantified for cell attachment and cell spreading. (FIG. 6E) HPSE^high cells were treated with 0, 3, 10, and 30 μM of S1ED^210-236, S1ED^210-233, and S1ED^214-240, plated on FN for 2 hr, then fixed, imaged and quantified as in FIG. 6D. (FIG. 6F) Transwell migration assays towards FN (for 16 hr) were performed for HPSE^low or HPSE^high cells in the presence of 30 μM of S1ED^210-236, S1ED^210-233, S1ED^214-240 and Vandetanib. (FIG. 6G) HPSE^low cell lysates were incubated overnight with glutathione beads coated with GST or GST-S1ED in the absence or presence of 30 μM of S1ED^210-236, S1ED^210-233, and S1ED^214-240. Capture of VLA-4 or VEGFR2 was detected by immunoblotting. Sequences in FIG. 6B are 210-240 (SEQ ID NO: 3), 210-236 (SEQ ID NO: 2), 210-233 (SEQ ID NO: 4), 214-240 (SEQ ID NO: 5) and 214-236 (SEQ ID NO: 7).
CAG cells were washed with CMF-PBS and then lysed for 20 min on ice in lysis buffer. Cell debris was removed by centrifugation at 13000 rpm for 20 min at 4° C. Whole cell lysates were then incubated at 4° C. overnight with either 3 μM GST or 3 μM GST-S1ED in the absence or presence of 1 μM, 3 μM, and 10 μM S1ED^210-240 peptide. GST or GST-S1ED was captured by addition of glutathione Sepharose and the beads were washed with ice-cold lysis buffer and CMF-PBS, prior to addition of SDS-PAGE sample buffer and analyszed by electrophoresis and western blotting as described previously.

[3] = test system: CAG myeloma cells; test: Cell spreading / attachment assay of CAG myeloma cells on FN or VCAM-1; format: cell-based, human; conditions: on FN, 2 hr; for HPSE^high cell adhesion / HPSE^high cell spreading: 0, 3, 10 and 30 μM peptide; for HPSE^low cell adhesion: high concentrations (30 μM)

T1 sequence (P35968 20-1356): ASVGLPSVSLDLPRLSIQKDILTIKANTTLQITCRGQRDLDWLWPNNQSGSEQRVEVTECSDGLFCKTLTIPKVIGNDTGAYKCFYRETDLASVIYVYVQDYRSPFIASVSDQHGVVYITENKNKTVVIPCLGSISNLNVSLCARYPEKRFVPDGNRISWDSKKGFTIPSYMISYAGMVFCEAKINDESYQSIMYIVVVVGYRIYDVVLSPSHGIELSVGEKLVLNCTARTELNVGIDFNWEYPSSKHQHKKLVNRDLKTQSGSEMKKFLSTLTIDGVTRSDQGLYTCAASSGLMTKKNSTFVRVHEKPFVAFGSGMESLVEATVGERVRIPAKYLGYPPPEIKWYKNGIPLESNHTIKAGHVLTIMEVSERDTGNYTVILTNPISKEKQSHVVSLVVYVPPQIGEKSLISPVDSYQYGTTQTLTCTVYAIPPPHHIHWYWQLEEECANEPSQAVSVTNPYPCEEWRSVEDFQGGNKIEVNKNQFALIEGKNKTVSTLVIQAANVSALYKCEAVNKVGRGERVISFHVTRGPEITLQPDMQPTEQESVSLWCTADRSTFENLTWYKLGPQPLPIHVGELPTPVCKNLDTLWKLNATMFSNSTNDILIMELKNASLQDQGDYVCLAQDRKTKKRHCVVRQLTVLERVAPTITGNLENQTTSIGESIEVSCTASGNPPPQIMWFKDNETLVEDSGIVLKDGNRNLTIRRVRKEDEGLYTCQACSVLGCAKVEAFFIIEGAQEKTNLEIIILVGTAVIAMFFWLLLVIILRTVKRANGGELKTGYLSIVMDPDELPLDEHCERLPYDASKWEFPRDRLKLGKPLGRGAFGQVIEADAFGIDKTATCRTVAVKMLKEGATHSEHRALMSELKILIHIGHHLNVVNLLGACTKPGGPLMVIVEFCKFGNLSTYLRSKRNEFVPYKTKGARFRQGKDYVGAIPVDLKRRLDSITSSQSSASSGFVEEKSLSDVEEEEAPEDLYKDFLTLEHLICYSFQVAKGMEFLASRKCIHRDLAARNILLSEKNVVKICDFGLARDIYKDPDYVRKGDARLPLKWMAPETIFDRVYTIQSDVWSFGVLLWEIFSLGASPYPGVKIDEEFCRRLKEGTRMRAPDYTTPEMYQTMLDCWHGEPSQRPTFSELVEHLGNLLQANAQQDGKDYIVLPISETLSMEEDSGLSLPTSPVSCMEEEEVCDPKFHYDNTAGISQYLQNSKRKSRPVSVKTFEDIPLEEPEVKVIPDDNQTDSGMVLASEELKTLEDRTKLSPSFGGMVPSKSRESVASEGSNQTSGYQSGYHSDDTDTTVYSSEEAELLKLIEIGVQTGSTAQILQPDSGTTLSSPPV

Substance | induction of HPSE^low cell spreading by S1ED peptides [1] | competition for capture of VEGFR2 by GST-S1ED [2] | HPSE^high cell adhesion [3] | HPSE^high cell spreading [3] | HPSE^low cell adhesion [3] | rescue of HPSE^high spreading blocked by MMP9 blocking antibody ([1]; on FN) | rescue of HPSE^high spreading blocked by Vandetanib ([1]; on FN, 1 μM Vandetanib) | HPSE^low cell spreading ([3]; 0, 0.3, 3, 10 and 30 μM peptide)
S1ED^210-233: syndecan-1 ectodomain peptide, residues 210-233 (SEQ ID NO: 4) (DFTFETSGENTAVVAVEPDRRNQS) | do not | competes for capture of VEGFR2 | induce cell detachment | block cell spreading when added at increasing concentrations | block cell adhesion |  |  | 
DFTFETSGENTAVVAVEPDRRNQSPVD [S1ED^210-236] | retains full activity | effectively blocks capture of both receptors | induce cell detachment | block cell spreading when added at increasing concentrations | block cell adhesion | rescued spreading in the presence of MMP9 inhibitor | fails to rescue spreading blocked by Vandetanib | induces HPSE^low cell spreading equal to that observed with S1ED^210-240
